Holding throughout (assay type): cell-based, human
The test system of series [1] is NHFs. The series is described as follows: Toroid stability of NHFs in micro-molded agarose toroidal aggregation devices. From the text:
Micro-molded, non-adhesive, cell aggregation devices, each having a plurality of cell aggregation recesses in the shape of either troughs or tori were made following the method described in Example 1. Agarose was employed as the hydrogel material and the cell aggregation recess features were as follows. Troughs were 400 μm wide with bottoms rounded with 200 μm radii. There were 21 rows of troughs of increasing length per gel. Each row had 11 troughs, two of which were 400 μm long, then one each of 600 μm through 1800 μm increasing at 200 μm lengths, then two 2200 μm troughs. The 2200 μm troughs were used for all experiments except those for FIG. 9c, which presents data from all trough lengths. […] A z-stack of images from the 4× objective with 10-50 μm between focal planes was collected at each time point using custom-designed Openlab 4.0.2 automations and images were analyzed using Volocity 3.1 (Improvision). […] The core circumference of tori was measured as a continuous circumferential line located at the estimated midpoint of the perpendicular width of the toroid. Micro-molded agarose toroidal aggregation devices (n=208) made as described in Example 9 were seeded with untreated NHFs and NHFs treated with 100 μM of the cell contraction inhibitor Y-27632 (Calbiochem (EMD Biosciences, Inc.), San Diego, Calif.) and the number of stable toroids with patent centers was measured over time. […]

For the next series, the system named is NHF cells. Briefly: Rod length change kinetics of NHF aggregates in 2.2 mm trough features. The settings on record: NHF cells treated with 50 μM and 200 μM Y-27632, 2.2 mm troughs, FIG. 10. From the text:
Micro-molded, non-adhesive, cell aggregation devices, each having a plurality of cell aggregation recesses in the shape of either troughs or tori were made following the method described in Example 1. Agarose was employed as the hydrogel material and the cell aggregation recess features were as follows. Troughs were 400 μm wide with bottoms rounded with 200 μm radii. There were 21 rows of troughs of increasing length per gel. Each row had 11 troughs, two of which were 400 μm long, then one each of 600 μm through 1800 μm increasing at 200 μm lengths, then two 2200 μm troughs. The 2200 μm troughs were used for all experiments except those for FIG. 9c, which presents data from all trough lengths. […] A z-stack of images from the 4× objective with 10-50 μm between focal planes was collected at each time point using custom-designed Openlab 4.0.2 automations and images were analyzed using Volocity 3.1 (Improvision). […] The core circumference of tori was measured as a continuous circumferential line located at the estimated midpoint of the perpendicular width of the toroid. […] Next, aggregation devices with trough features 2.2 mm in length were made as described in previous examples and seeded with NHF cells, NHF cells in serum-free medium, NHF cells treated with 50 μM of Y-27632 and NHF cells treated with 200 μM of Y-27632 and the lengths of resulting rod shaped aggregates were measured. […]

The test system of series [2] is NHFs. The series is described as follows: Rod aggregation kinetics in 2.2 mm troughs after removal of drug (time-lapse). To be noted: 100 μM Y-27632 initially, removed at 1.5 hrs and replaced with normal medium, FIG. 11. How it is done: Excess medium was aspirated from the wells and 200 μL of a single cell suspension was pipetted into the aggregation recess of each gel. Medium was added to the wells after a 1.5 hour incubation period wherein cells settled into the aggregation recesses and commenced the self-assembly process. Medium was exchanged every other day. […] A z-stack of images from the 4× objective with 10-50 μm between focal planes was collected at each time point using custom-designed Openlab 4.0.2 automations and images were analyzed using Volocity 3.1 (Improvision). Bright-field and fluorescent images were obtained using an Olympus IX70 microscope equipped with an AxioCam MRc digital camera. For the time-lapse experiments, medium was carefully added 20-30 minutes post seeding, before the devices were transferred to the time lapse microscope. Measurements of morphological changes were performed with ImageJ data analysis software. The length of a rod was the length of a line drawn from end to end of the structure (long-axis length). The core circumference of tori was measured as a continuous circumferential line located at the estimated midpoint of the perpendicular width of the toroid. Gels with trough features 2.2 mm in length were then seeded with NHFs or with NHFs treated initially with 100 μM Y-27632 and imaged every 10 minutes. At 1.5 hrs, the Y-27632 solution was removed and replaced with normal medium. […]

The test system of series [3] is NHFs. The series is described as follows: NHF aggregation in honeycomb-structured cell aggregation devices. To be noted: NHFs maintained in Y-27632 solution, day 5; untreated NHFs contracted up and off of pegs within 1 day. How it is done: In this experiment, cell aggregation devices were formed from agarose gels as described above, but agarose gels were micromolded with honeycomb-shaped recesses instead of troughs or a tori. The honeycomb-shaped recesses are essentially overlapping, tori-shaped recesses: There are 13 pegs (1 central, 6 concentric around the central peg and 6 outer pegs at 0°, 60°, 120°, 180°, 240°, 300° and 360°) within a network of recesses […] and with bottoms rounded with 200 μm radii. Time lapse microscopy was again used to monitor self-assembly of the NHF cells alone, the H35 cells alone and 50:50 mixtures of NHF cells and H35 cells as described above. The results are shown in FIG. 8, at time 0 (top row), 10 hours post-seeding (middle row) and 20 hours post-seeding (bottom row) with the aggregated NHF cells in column A, the aggregated H35 cells in column B and the aggregated 1:1 mixture of NHF and H35 cells in column C. The aggregated NHF cells quickly thinned, became taught and popped off the outer pegs of the honeycomb shaped substrate. Once freed from the substrate, the honeycomb-shaped aggregates of NHF cells contracted in a uniform manner but maintained its shape. The aggregated H35 cells thinned more slowly, maintaining contact with the outer pegs and staying within the molds. […]

In series [4] the test system is NHFs. The series is described as follows: Viability staining of treated NHF honeycombs. To be noted: NHF honeycombs maintained in Y-27632 solution, day 5. How it is done:
NHF cells alone, H35 cells alone, and 50:50 mixtures of NHF and H35 cells were seeded into the trough aggregation devices and the tori aggregation devices as described in Example 2 and allowed to aggregate. Briefly, NHF cells derived from neonatal foreskins and H35 rat hepatoma cells were expanded in DMEM supplemented with 10% fetal bovine serum (FBS) and 1% penicillin/streptomycin solution. NHF cells were incubated in a 10% CO2 atmosphere and H35 cells were incubated in 5% CO2. The mixture experiments were a 50:50 mix of both cell types and were maintained in a 5% CO2 atmosphere. The cells were stained with fluorescent dyes (NHF cells with CellTracker Red CMTPX and H35 cells with CellTracker Green CMFDA from Invitrogen) to allow their aggregation in the mixed populations to be followed and their aggregated position visualized. Cells used in experiments were between passage 3 and passage 9. Cell viability was determined using the LIVE/DEAD Viability/Cytotoxicity Kit (Invitrogen) in accordance with the manufacturer's instructions.
Lastly, NHFs were seeded onto honeycomb-structured cell aggregation devices made as described in Example 9B and maintained in Y-27632 solution.

Regarding `C[C@@H](N)[C@H]1CC[C@H](C(=O)Nc2ccncc2)CC1` [Y-27632], the “treated NHFs still having patent centers (stable toroids)” value stood at 90% in the series on NHFs [1] (100 μM Y-27632, day 1, n=104, all untreated NHFs had progressed to spheroids) and 5% with NHFs [1] (100 μM Y-27632, day 2, n=104). Besides, the “effect on length change kinetics of rod shaped aggregates” value in the series on NHF cells is “dramatically slowed length change kinetics in rods”. Further, the “aggregation kinetics after removal of the drug” value in the series on NHFs [2] is given as “progressing with similar kinetics to those of untreated NHFs”. In addition, the “maintenance of honeycomb structure” value in the series with NHFs [3] was “remained intact in the honeycomb-shaped recesses at day 5”. The “cell viability (viability staining)” value in the series on NHFs [4] is reported as “majority of the cells were living at day 5”.

The values above are taken from patent US8361781B2, “Cell aggregation and encapsulation device and method” (Brown University, priority 2006, dated 2013).
